According to ChEMBL document CHEMBL3808350, “Stacking with No Planarity?” (ACS Med Chem Lett, 2016):

Legend:
[1] = target: T1, Bifunctional epoxide hydrolase 2 (Homo sapiens, UniProt P34913); assay: Inhibition of sEH (unknown origin)
T1 sequence (P34913 whole entry): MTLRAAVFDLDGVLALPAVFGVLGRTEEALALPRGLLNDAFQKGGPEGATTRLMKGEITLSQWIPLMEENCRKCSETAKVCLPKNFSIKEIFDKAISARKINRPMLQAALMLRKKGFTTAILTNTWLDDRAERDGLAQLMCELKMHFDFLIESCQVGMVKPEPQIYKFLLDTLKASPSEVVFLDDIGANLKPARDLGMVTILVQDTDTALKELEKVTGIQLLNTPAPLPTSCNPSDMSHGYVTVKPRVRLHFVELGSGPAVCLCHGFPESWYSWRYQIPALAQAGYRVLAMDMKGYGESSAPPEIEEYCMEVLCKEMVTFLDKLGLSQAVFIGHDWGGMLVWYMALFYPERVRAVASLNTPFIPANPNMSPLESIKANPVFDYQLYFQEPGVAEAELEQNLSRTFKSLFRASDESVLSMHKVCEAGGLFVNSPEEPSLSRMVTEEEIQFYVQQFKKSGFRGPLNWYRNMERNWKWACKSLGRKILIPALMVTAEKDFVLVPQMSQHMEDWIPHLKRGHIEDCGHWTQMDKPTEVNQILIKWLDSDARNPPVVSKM

Aminopeptidase B = Aminopeptidase B (Homo sapiens, UniProt Q9H4A4); assay: Inhibition of aminopeptidase B (unknown origin)
[2] = Displacement of (Z)-5-(4-(3-carboxy-3-hydroxyacryloyl)-4-(4-chlorobenzyl)piperidine-1-carbonyl)-2-(6-hydroxy-3-oxo-3H-xanthen-9-yl)benzoic acid from Influenza A virus (A/Viet Nam/1203/2004(H5N1)) recombinant C-terminal 10X-His-tagged polymerase acidic protein (1 to 209 residues) expressed in Escherichia coli BL21 (DE3) after 30 mins by fluorescence polarization assay

Sequence of Aminopeptidase B (Q9H4A4 whole entry, the tested form may be a part): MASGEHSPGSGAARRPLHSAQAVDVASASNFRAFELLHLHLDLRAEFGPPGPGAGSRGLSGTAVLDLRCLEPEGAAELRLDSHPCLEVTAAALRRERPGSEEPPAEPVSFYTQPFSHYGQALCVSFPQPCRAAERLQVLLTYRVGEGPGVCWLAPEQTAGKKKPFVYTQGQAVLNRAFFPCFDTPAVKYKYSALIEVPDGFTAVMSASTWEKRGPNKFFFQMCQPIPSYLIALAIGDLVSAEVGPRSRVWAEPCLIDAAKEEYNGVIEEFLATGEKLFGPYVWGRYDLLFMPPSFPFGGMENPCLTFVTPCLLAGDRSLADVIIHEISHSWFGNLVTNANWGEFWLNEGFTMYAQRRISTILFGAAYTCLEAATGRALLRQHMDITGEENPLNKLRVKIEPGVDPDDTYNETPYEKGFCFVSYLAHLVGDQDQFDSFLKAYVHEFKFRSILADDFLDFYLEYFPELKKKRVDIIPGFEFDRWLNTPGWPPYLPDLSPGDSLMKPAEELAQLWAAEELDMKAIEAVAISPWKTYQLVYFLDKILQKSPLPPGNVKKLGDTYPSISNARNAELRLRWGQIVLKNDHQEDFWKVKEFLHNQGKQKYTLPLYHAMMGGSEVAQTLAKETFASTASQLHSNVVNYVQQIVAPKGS

SMILES	IC50 (Aminopeptidase B)	Ki [2]	also measured
O=C(Nc1ccccc1)NC1CCCCC1	–	–	IC50 [1]: 760 nM
CC(C)C[C@H](NC(=O)[C@@H](O)[C@H](N)Cc1ccccc1)C(=O)O [UBENIMEX]	160000 nM	–	–
CC(C)C[C@H](NC(=O)[C@@H](O)[C@H](N)CC1CCCCC1)C(=O)O	3500 nM	–	–
O=C(O)/C(O)=C/C(O)C1(Cc2ccc(Cl)cc2)CCN(CC2CCCCC2)CC1 (stereo not given)	–	84 nM	–
O=C(O)/C(O)=C/C(O)C1(Cc2ccc(Cl)cc2)CCN(Cc2ccccc2)CC1 (stereo not given)	–	90 nM	–
